Patent publication US20240417405A1, “Substituted Spiro Derivatives” (Janssen Pharmaceutica NV, priority 2021, published 2024)
Read-outs that look alike come from different tables or passages of the source.

Experiments:
KO-52 cells = test: Proliferation assay, spheroid-like growth, KO-52 (MLL wildtype control cell line); format: cell-based, human; conditions: KO-52 control cells, 8 days, confluence as measure of spheroid size, read-out: spheroid assay_OneTime KO-52 IC50
In short: (§1)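 Read-out is spheroid confluence from live-cell images taken on day 8, scaled between DMSO-treated wells (0% cytotoxicity) and a low control such as 1 μM staurosporin. Cells were exposed to compound for 8 days in low-attachment plates; KO-52 served as the MLL-wildtype counterscreen.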

[1] = biological target: T1, menin/MLL (terbium chelate-labeled menin, FITC-MBM1 peptide) (Homo sapiens, UniProt O00255, T541A); test: Menin/MLL homogenous time-resolved fluorescence (HTRF) assay; format: binding; conditions: 30 min incubation
T1 construct: Menin (a.a 1-610-6xhis tag)
T1 sequence (O00255 with tags, fused parts or gaps T541A): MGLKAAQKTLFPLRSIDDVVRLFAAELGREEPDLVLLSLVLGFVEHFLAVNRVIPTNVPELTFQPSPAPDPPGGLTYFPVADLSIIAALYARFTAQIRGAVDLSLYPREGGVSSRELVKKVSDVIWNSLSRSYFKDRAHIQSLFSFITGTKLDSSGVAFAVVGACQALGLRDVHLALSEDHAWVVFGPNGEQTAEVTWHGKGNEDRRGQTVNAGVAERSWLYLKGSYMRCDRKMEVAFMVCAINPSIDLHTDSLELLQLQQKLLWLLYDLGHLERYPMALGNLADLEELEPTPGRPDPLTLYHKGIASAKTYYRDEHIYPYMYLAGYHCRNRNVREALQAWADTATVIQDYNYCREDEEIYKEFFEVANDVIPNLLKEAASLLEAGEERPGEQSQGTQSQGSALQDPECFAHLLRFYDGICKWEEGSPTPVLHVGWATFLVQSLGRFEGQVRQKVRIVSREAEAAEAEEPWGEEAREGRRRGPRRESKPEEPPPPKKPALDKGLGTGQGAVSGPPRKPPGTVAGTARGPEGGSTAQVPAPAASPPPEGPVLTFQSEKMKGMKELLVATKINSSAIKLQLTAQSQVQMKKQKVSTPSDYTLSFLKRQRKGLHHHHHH
In short: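 Displacement of FITC-labeled MBM1 peptide (75 nM) from terbium-labeled menin 1-610 (200 pM) measured by HTRF emission ratio. Eleven four-fold dilutions, typically from 10 μM, normalised to saturating-competitor and no-compound controls; IC50 from four-parameter logistic.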

MOLM14 cells = test: Proliferation assay, spheroid-like growth, MOLM14 (MLL-AF9 rearranged); format: cell-based, human; conditions: 8 days, confluence as measure of spheroid size, read-out: spheroid assay_OneTime MOLM14 IC50
In short: as §1

| Compound | IC50 [1] [nM] | IC50 (MOLM14 cells; Homo sapiens, MOLM-14, 192 h) [nM] | IC50 (MOLM14 cells) [nM] | IC50 (KO-52 cells; Homo sapiens, 192 h) [nM] | IC50 (KO-52 cells) [nM] |
| --- | --- | --- | --- | --- | --- |
| CC(=O)N[C@H]1C[C@@H](C(C(C)C)N2CC3(CCN(c4ncnnc4Oc4ccc(F)cc4-c4cncnc4C4CC4)C3)C2)C1 (stereo partly drawn) [Compound 2] | 0.4 | 29 |  | 9040 |  |
| CC(C)[C@H]([C@H]1C[C@@H](N2CC3(COC3)C2)C1)N1CC2(CCN(c3ncnnc3Oc3ccc(F)cc3-c3ncc(C#N)cc3C3CC3)C2)C1 (single isomer, unassigned) [Compound 94] | 0.1 | 25 |  | 3390 |  |
| CC(C)C([C@H]1C[C@H](N(C)C)C1)N1CC2(CCN(c3ncnnc3Oc3ccc(F)cc3-c3cncnc3C3CC3)C2)C1 (single isomer, unassigned) [Compound 8] | 0.3 | 52 |  | 10200 |  |
| CC(C)[C@@H]([C@H]1C[C@@H](N2CCCCC2)C1)N1CC2(CCN(c3ncnnc3Oc3ccc(F)cc3-c3nnccc3C3CC3)C2)C1 (single isomer, unassigned) [Compound 250] | 0.1 | 8 |  | 940 |  |
| CC(C)[C@H]([C@H]1C[C@H](N2CC(O)C3(CCC3)C2)C1)N1CC2(CCN(c3ncnnc3Oc3ccc(F)cc3-c3cncnc3C3CC3)C2)C1 (mixture of isomers) [Compound 213] | 0.1 | 41 |  | 3910 |  |
| CC(C)C([C@H]1C[C@@H](NC(=O)CCN(C)C)C1)N1CC2(CCN(c3ncnnc3Oc3ccc(F)cc3-c3cncnc3C3CC3)C2)C1 (stereo partly drawn) [Compound 302] | 0.1 | 21 |  | 14100 |  |
| CC(C)[C@H]([C@H]1C[C@@H](NC2CCOCC2)C1)N1CC2(CCN(c3ncnnc3Oc3ccc(F)cc3-c3cncnc3C3CC3)C2)C1 (single isomer, unassigned) [Compound 163] | 0.1 | 11 |  | 4370 |  |
| CC(C)[C@@H]([C@H]1C[C@H](N2C[C@H]3C[C@@H]2CO3)C1)N1CC2(CCN(c3ncnnc3Oc3ccc(F)cc3-c3cccnc3C3CC3)C2)C1 (single isomer, unassigned) [Compound 291] | 0.2 | 24 |  | 1070 |  |
| CC(C)[C@@H]([C@H]1C[C@@H](N2CCC3(COC3)C2)C1)N1CC2(CCN(c3ncnnc3Oc3ccc(F)cc3-c3cccnc3C3CC3)C2)C1 (single isomer, unassigned) [Compound 289] | 0.1 | 2 |  | 310 |  |
| CC(C)[C@H]([C@H]1C[C@@H](NC(=O)CC#N)C1)N1CC2(CCN(c3ncnnc3Oc3ccc(F)cc3-c3cncnc3C3CC3)C2)C1 (single isomer, unassigned) [Compound 298] | 0.1 | 6 |  | 9320 |  |
| CC(C)[C@H]([C@H]1C[C@@H](N2CCC(C)(C(=O)N(C)C)CC2)C1)N1CC2(CCN(c3ncnnc3Oc3ccc(F)cc3-c3cncnc3C3CC3)C2)C1 (single isomer, unassigned) [Compound 62] | 0.1 | 4 |  | 6260 |  |
| CC(C)C([C@H]1C[C@@H](NC(=O)C2CC2)C1)N1CC2(CCN(c3ncnnc3Oc3ccc(F)cc3-c3cnncc3C3CC3)C2)C1 (stereo partly drawn) [Compound 184] | 0.2 | 10 |  | 600 |  |
| CC(C)[C@H]([C@H]1C[C@@H](N2CC[C@@](C)(O)C2)C1)N1CC2(CCN(c3ncnnc3Oc3ccc(F)cc3-c3cncnc3C3CC3)C2)C1 (single isomer, unassigned) [Compound 47] | 0.2 | 3 |  | 4360 |  |
| CC(C)[C@H]([C@H]1C[C@H](N2CCC3(CCO3)CC2)C1)N1CC2(CCN(c3ncnnc3Oc3ccc(F)cc3-c3cnncc3C3CC3)C2)C1 (single isomer, unassigned) [Compound 280b] | 2.4 | 740 |  | > 15000 |  |

The next lines start with results.

| IC50 [1] [nM] | IC50 (MOLM14 cells; Homo sapiens, MOLM-14, 192 h) [nM] | IC50 (MOLM14 cells) [nM] | Compound | IC50 (KO-52 cells; Homo sapiens, 192 h) [nM] | IC50 (KO-52 cells) [nM] |
| --- | --- | --- | --- | --- | --- |
| 0.1 | 32 |  | CC(C)[C@H]([C@H]1C[C@@H](NC(=O)C2CC2)C1)N1CC2(CCN(c3ncnnc3Oc3ccc(F)cc3-c3nnccc3C3CC3)C2)C1 (single isomer, unassigned) [Compound 304] | 12100 |  |
| 0.15 | 3 |  | CC(=O)N1CC2(C1)CN([C@H]1C[C@@H]([C@H](C(C)C)N3CC4(CCN(c5ncnnc5Oc5ccc(F)cc5-c5cnc(C)cc5C5CC5)C4)C3)C1)C2 (single isomer, unassigned) [Compound 371] | 10100 |  |
| 0.1 | 3 |  | CC(C)[C@@H]([C@H]1C[C@@H](N2CCC[C@@H](O)C2)C1)N1CC2(CCN(c3ncnnc3Oc3ccc(F)cc3-c3cccnc3C3CC3)C2)C1 (single isomer, unassigned) [Compound 93] | 490 |  |
| 0.3 | 11 |  | CCC(=O)N[C@H]1C[C@@H]([C@@H](C(C)C)N2CC3(CCN(c4ncnnc4Oc4ccc(F)cc4-c4cncnc4C4CC4)C3)C2)C1 (single isomer, unassigned) [Compound 356] | > 15000 |  |
| 0.36 | 9.9 |  | CNC(=O)c1cnc(N[C@H]2C[C@@H](C(C(C)C)N3CC4(CCN(c5ncnnc5Oc5ccc(F)cc5-c5cncnc5C5CC5)C4)C3)C2)o1 (single isomer, unassigned) [Compound 436] | 5970 |  |
| 0.1 | 7 |  | CC(C)[C@H]([C@H]1C[C@@H](N2CCC3(CCO3)CC2)C1)N1CC2(CCN(c3ncnnc3Oc3ccc(F)cc3-c3cncnc3C3CC3)C2)C1 (single isomer, unassigned) [Compound 232] | 1800 |  |
| 0.2 | 11 |  | CC(C)C([C@H]1C[C@@H](N2CCC(C)(O)CC2)C1)N1CC2(CCN(c3ncnnc3Oc3ccc(F)cc3-c3cncnc3C3CC3)C2)C1 (stereo partly drawn) [Compound 129] | 3390 |  |
| 0.1 | 5 |  | CC(C)C([C@H]1C[C@@H](N2CC3(COC3)C2)C1)N1CC2(CCN(c3ncnnc3Oc3ccc(F)cc3-c3cncnc3C3CC3)C2)C1 (single isomer, unassigned) [Compound 20] | 4300 |  |
| 2.5 | 580 |  | CC(C)[C@H]([C@H]1C[C@@H](N2CC(C(=O)N(C)C)C2)C1)N1CC2(CCN(c3ncnnc3Oc3ccc(F)cc3-c3cncnc3C3CC3)C2)C1 (single isomer, unassigned) [Compound 243] | > 15000 |  |
| 0.1 | 7 |  | CC(C)C([C@H]1C[C@@H](N2CCC(O)CC2)C1)N1CC2(CCN(c3ncnnc3Oc3ccc(F)cc3-c3cncnc3C3CC3)C2)C1 (stereo partly drawn) [Compound 121] | 2780 |  |
| 0.1 | 11 |  | CC(C)[C@@H]([C@H]1C[C@@H](N2CC3(COC3)C2)C1)N1CC2(CCN(c3ncnnc3Oc3ccc(F)cc3-c3cnncc3C3CC3)C2)C1 (single isomer, unassigned) [Compound 106] | 4990 |  |
| 0.1 |  | 19 | CC(=O)N1CCC2CN([C@H]3C[C@@H]([C@@H](C(C)C)N4CC5(CCN(c6ncnnc6Oc6ccc(F)cc6-c6cncnc6C6CC6)C5)C4)C3)CC21 (single isomer, unassigned) [Compound 58] |  | > 15000 |
| 0.2 | 20 |  | CC(=O)N1CCN([C@H]2C[C@@H]([C@H](C(C)C)N3CC4(CCN(c5ncnnc5Oc5ccc(F)cc5-c5cccnc5C5CC5)C4)C3)C2)CC1 (single isomer, unassigned) [Compound 89] | 6180 |  |
| 0.1 | 10 |  | CC(C)[C@@H]([C@H]1C[C@@H](N2CC3(CCO3)C2)C1)N1CC2(CCN(c3ncnnc3Oc3ccc(F)cc3-c3ncncc3C3CC3)C2)C1 (single isomer, unassigned) [Compound 101] | 1070 |  |
| 0.5 | 80 |  | CC(=O)N[C@H]1C[C@@H](C(C(C)C)N2CC3(CCN(c4ncnnc4Oc4ccc(F)cc4-c4nccnc4C4CC4)C3)C2)C1 (stereo partly drawn) [Compound 176] | 10400 |  |
